Literature values as cited in PMC4862687, “GPCRs Direct Germline Development and Somatic Gonad Function in Planarians” (PLoS Biology, 2016).

Key:
pituitary-gonadal axis = conditions: intact rats; ref [55]; cited from earlier work
Excerpt: (§1) NPF expression in Drosophila brain is sexually dimorphic and is believed to be centrally involved in mating behavior [52]. Also, NPF-deficient flies show a decrease in egg laying capacity, but the same effect is not observed in NPFR-1-deficient flies. […] Conversely, in intact rats, NPY has an inhibitory effect ...

secretion of LH and GnRH = conditions: injection of NPY into sex steroid-primed ovariectomized rats; ref [53],[54]; cited from earlier work
Excerpt: as §1

GnRH neuronal output = system: GnRH neuronal output; set-up: method as in PMID 3131748, PMID 24221756; conditions: mammals and teleosts; ref [61],[62]; cited from earlier work

neuropeptide Y [NPY]
effect on reproduction / pituitary-gonadal axis (pituitary-gonadal axis): inhibitory effect on reproduction by suppressing the pituitary-gonadal axis
LH and GnRH secretion (secretion of LH and GnRH): induces secretion of LH and GnRH
GnRH neuronal output (GnRH neuronal output): positively modulates GnRH neuronal output
